Patent US12685742B2, “Application of stachyose in preparation of drug for treating castration-resistant prostate cancer” (priority 2021, dated 2026)

What was measured:
AR = AR immunohistochemistry of prostate tissue slices, C-MYC-over-expressed prostate cancer mouse model; assay type: in vivo, mice; conditions: 30 d after drug tolerance relapse, immunohistochemical positive cells
Excerpt: Then, the necks of some mice were severed, and the prostate cancers of the mice were taken, photographed and weighed. […] Then, the necks of the mice were severed, and the prostate cancers of the mice were taken, photographed, weighed and subjected to experiments including immunohistochemistry.

[1] = tested on: C-MYC-over-expressed prostate cancer mouse model; assay: C-MYC (Hi-Myc)-over-expressed spontaneous prostate cancer mouse model, prostate weight and HE staining; assay type: in vivo, mice
Protocol: A C-MYC (Hi-Myc)-over-expressed spontaneous prostate cancer mouse model was constructed, and at 4 months, the mice developed mPIN/Cancer transition. At the moment, the mice were randomly divided into an NC control group (intragastrical administration with solvents) and an Enza administration group. Then, intragastrical administration was performed every three days, and Enza administration was performed at 10 mg/Kg for a total of 30 days. Then, the necks of some mice were severed, and the prostate cancers of the mice were taken, photographed and weighed. […] Then, mice (mice aged 6 months) were randomly divided into: an NC control group (intragastrical administration with solvents all the time), an Enza single-drug group 1, an Enza single-drug group 2, a Stac single-drug group 1, a Stac single-drug group 2 and an Enza and Stac combination group, the corresponding administration treatment was performed, and all mice were intragastrically administered once every three days. The dosage of Enza in the Enza single-drug group 1 was kept at 10 mg/Kg each time, the dosage of Enza in the Enza single-drug group 2 was kept at 90 mg/Kg each time, the dosage of Stac in the Stac single-drug group 1 was kept at 80 mg/Kg each time, the dosage of Stac in the Stac single-drug group 2 was kept at 90 mg/Kg each time, the dosages of Enza and Stac in the Enza and Stac combination group were kept at 10 mg/Kg and 80 mg/Kg each time, and the administration was performed for a total of 30 days. Then, the necks of the mice were severed, and the prostate cancers of the mice were taken, photographed, weighed and subjected to experiments including immunohistochemistry.

PRDX5 = PRDX5 immunohistochemistry of prostate tissue slices, C-MYC-over-expressed prostate cancer mouse model; assay type: in vivo, mice; conditions: 30 d after drug tolerance relapse, immunohistochemical positive cells
Excerpt: A C-MYC (Hi-Myc)-over-expressed spontaneous prostate cancer mouse model was constructed, and at 4 months, the mice developed mPIN/Cancer transition. […] Then, the necks of some mice were severed, and the prostate cancers of the mice were taken, photographed and weighed. […] Then, the necks of the mice were severed, and the prostate cancers of the mice were taken, photographed, weighed and subjected to experiments including immunohistochemistry.

L-DTP (EPI) cells = assay: CCK8 cell survival and CI value (Calcusyn) in drug-tolerant L-DTP (EPI) cells; assay type: cell-based; conditions: L-DTP (EPI) cells produced after continuous EPI for 9 days
Excerpt: (§1) Finally, Calcusyn software was used for calculating a CI value in L-DTP cells.

L-DTP (Enza) cells = assay: CCK8 cell survival and CI value (Calcusyn) in drug-tolerant L-DTP (Enza) cells; assay type: cell-based; conditions: L-DTP (Enza) cells produced after continuous Enza for 9 days
Excerpt: as §1

LNCaP cells = assay: Production of DTP/DTEP cells from LNCaP cells by EPI and Enza, cell counting; assay type: cell-based; conditions: 1×10^6 LNCaP cells seeded, one value given for EPI and Enza; for number of LNCaP-DTP cells as percentage of the initial seed cells: 9 days drug treatment; for number of LNCaP-DTEP cells as percentage of the initial seed cells: 33 days drug treatment
Excerpt: In the period, for replacement, a fresh drug-containing medium was used every three days for culture, some cells (DTP cells) were collected for subsequent experiments after 9 days, and the remaining cells continued to be treated with drugs. In the period, for replacement, a fresh drug-containing medium was used every three days for culture, and DTEP cells were collected after 33 days for subsequent experiments. After the DTP and DTEP cells were produced, the cells were digested and counted to calculate the percentage of the cells in 1×10^6 cells. The collected NC, DTP and DTEP cells were used for subsequent Western Blot experiments: the three groups of cells were subjected to cell lysis, protein extraction and quantification, SDS-PAGE gel electrophoresis, membrane transfer, blocking, primary antibody incubation, secondary antibody incubation and development, then, the expression changes of AR-FL and its related target proteins and AR-Vs and its related target proteins were observed, and the expression changes of cell cycle-related proteins were observed. Flow cytometry: dead cells were stained by a PI-stained cycle kit, and cell cycle changes were determined by a flow cytometry.

SMILES | AR expression/% (AR; Stac 80 mg/Kg) | AR expression/% (AR; Stac 90 mg/Kg) | Average of prostate weights of mice ([1]; Stac 80 mg/Kg, 30 d of administration after drug tolerance relapse, intragastric every three days) | Average of prostate weights of mice ([1]; Stac 90 mg/Kg, 30 d of administration after drug tolerance relapse, intragastric every three days) | treatment effect of single use after drug tolerance (prostate weight) ([1]; single use of Stac compared with single use of Enza, after drug tolerance relapse) | PRDX5 expression/% (PRDX5; Stac 80 mg/Kg) | PRDX5 expression/% (PRDX5; Stac 90 mg/Kg) | inhibition rate (L-DTP (EPI) cells) | inhibition rate (L-DTP (Enza) cells) | prostate weight compared with NC control group ([1]; Enza 10 mg/Kg intragastric every three days, 30 days, from 4 months of age) | Average of prostate weights of mice ([1]; Enza 10 mg/Kg, 30 d of administration after drug tolerance relapse, intragastric every three days) | Average of prostate weights of mice ([1]; Enza 90 mg/Kg, 30 d of administration after drug tolerance relapse, intragastric every three days) | Average of prostate weights of mice ([1]; continued Enza administration, after 90 days, drug tolerance relapse (NC control 98.2 mg)) | Average of prostate weights of mice ([1]; continuous Enza 10 mg/Kg intragastric every three days, 30 days (NC control 88.7 mg)) | PRDX5 expression/% (PRDX5; Enza 10 mg/Kg) | PRDX5 expression/% (PRDX5; Enza 90 mg/Kg) | number of LNCaP-DTP cells as percentage of the initial seed cells (LNCaP cells) | number of LNCaP-DTEP cells as percentage of the initial seed cells (LNCaP cells)
OC[C@H]1O[C@H](OC[C@H]2O[C@H](OC[C@H]3O[C@H](O[C@]4(CO)O[C@H](CO)[C@@H](O)[C@@H]4O)[C@H](O)[C@@H](O)[C@@H]3O)[C@H](O)[C@@H](O)[C@H]2O)[C@H](O)[C@@H](O)[C@H]1O [Stac, Stachyose] | 61.5% | 57.4% | 50.86 mg | 47.50 mg | better than that of the single use of Enza | 68.2% | 60.9% | 67.48% | 62.47% | – | – | – | – | – | – | – | – | –
CNC(=O)c1ccc(N2C(=S)N(c3ccc(C#N)c(C(F)(F)F)c3)C(=O)C2(C)C)cc1F [Enza, Enzalutamide] | – | – | – | – | – | – | – | – | no obvious inhibiting effect | reduced by half | 54.42 mg | 53.83 mg | 77.1 mg | 43.9 mg | 78.4% | 80.0% | 103.11% | 110.92%
CC(C)(c1ccc(OCC(O)CO)cc1)c1ccc(OCC(O)CCl)cc1 (stereo not drawn) [EPI, EPI-001] | – | – | – | – | – | – | – | no obvious inhibiting effect | – | – | – | – | – | – | – | – | 103.11% | 110.92%
